Data reported in ChEMBL document CHEMBL1124085, “Flavins as potential antimalarials. 1. 10-(Halophenyl)-3-methylflavins” (1988).
Where “and” joins values, the source holds several entries; their conditions need not be identical. Equal entries are not always repeated.

Legend:
Type in all cases: functional
[1] = system: Mus musculus; test: Oral antimalarial activity against Plasmodium vinckei vinckei in mice (Mus musculus) measured as % cured and increase in MST (days) at 150 mg/kg dose.
[2] = system: Mus musculus; test: Oral antimalarial activity against Plasmodium vinckei vinckei in mice (Mus musculus) measured as increase in mean survival time at 75 mg/kg dose.
[3] = system: Mus musculus; test: Parenteral antimalarial activity against Plasmodium vinckei vinckei in mice (Mus musculus) measured as % cured and increase in MST (days) at 30 mg/kg dose.
[4] = system: Mus musculus; test: Parenteral antimalarial activity against Plasmodium vinckei in mice (Mus musculus) measured as increase in mean survival time at 10 mg/kg dose.
[5] = system: Mus musculus; test: Parenteral antimalarial activity against Plasmodium vinckei in mice (Mus musculus) measured as increase in mean survival time at 15 mg/kg dose.
[6] = system: Mus musculus; test: Oral antimalarial activity against Plasmodium vinckei in mice (Mus musculus) measured as % cured and increase in MST (days) at 25 mg/kg dose.
[7] = system: Mus musculus; test: Oral antimalarial activity against Plasmodium vinckei vinckei in mice (Mus musculus) measured as % cured and increase in MST (days) at 100 mg/kg dose.
[8] = system: Mus musculus; test: Oral antimalarial activity against Plasmodium vinckei vinckei in mice (Mus musculus) measured as increase in mean survival time at 50 mg/kg dose.
[9] = system: Mus musculus; test: Parenteral antimalarial activity against Plasmodium vinckei vinckei in mice (Mus musculus) measured as increase in mean survival time at 20 mg/kg dose.
[10] = system: Mus musculus; test: Oral antimalarial activity against Plasmodium vinckei in mice (Mus musculus) measured as % cured and increase in MST (days) at 75 mg/kg dose.
[11] = system: Mus musculus; test: Parenteral antimalarial activity against Plasmodium vinckei vinckei in mice (Mus musculus) measured as % cured and increase in MST (days) at 20 mg/kg dose.
[12] = system: Mus musculus; test: Oral antimalarial activity against Plasmodium vinckei in mice (Mus musculus) measured as increase in mean survival time at 25 mg/kg dose.
[13] = system: Mus musculus; test: Parenteral antimalarial activity against Plasmodium vinckei vinckei in mice (Mus musculus) measured as increase in mean survival time at 25 mg/kg dose.
[14] = system: Mus musculus; test: Oral antimalarial activity against Plasmodium vinckei in mice (Mus musculus) measured as increase in mean survival time at 150 mg/kg dose.
[15] = system: Mus musculus; test: Parenteral antimalarial activity against Plasmodium vinckei vinckei in mice (Mus musculus) measured as % cured and increase in MST (days) at 25 mg/kg dose.
[16] = system: Mus musculus; test: Oral antimalarial activity against Plasmodium vinckei vinckei in mice (Mus musculus) measured as increase in mean survival time at 100 mg/kg dose.
[17] = system: Mus musculus; test: Parenteral antimalarial activity against Plasmodium vinckei vinckei in mice (Mus musculus) measured as % cured and increase in MST (days) at 10 mg/kg dose.
[18] = system: Mus musculus; test: Parenteral antimalarial activity against Plasmodium vinckei in mice (Mus musculus) measured as % cured and increase in MST (days) at 15 mg/kg dose.
[19] = system: Mus musculus; test: Oral antimalarial activity against Plasmodium vinckei in mice (Mus musculus) measured as % cured and increase in MST (days) at 50 mg/kg dose.
[20] = system: Mus musculus; test: Parenteral antimalarial activity against Plasmodium vinckei vinckei in mice (Mus musculus) measured as increase in mean survival time at 30 mg/kg dose.
[21] = system: Mus musculus; test: Oral antimalarial activity against Plasmodium vinckei in mice (Mus musculus) measured as increase in mean survival time at 25 mg/kg dose
[22] = system: Mus musculus; test: Oral antimalarial activity against Plasmodium vinckei in mice (Mus musculus) measured as increase in mean survival time at 100 mg/kg dose
[23] = system: Mus musculus; test: Parenteral antimalarial activity against Plasmodium vinckei in mice (Mus musculus) measured as % cured and increase in MST (days) at 10 mg/kg dose
[24] = system: Mus musculus; test: Oral antimalarial activity against Plasmodium vinckei vinckei in mice (Mus musculus) measured as increase in mean survival time at 50 mg/kg dose
[25] = system: Mus musculus; test: Oral antimalarial activity against Plasmodium vinckei vinckei in mice (Mus musculus) measured as % cured and increase in MST (days) at 150 mg/kg dose
[26] = system: Mus musculus; test: Oral antimalarial activity against Plasmodium vinckei vinckei in mice (Mus musculus) measured as % cured and increase in MST (days) at 100 mg/kg dose
[27] = system: Mus musculus; test: Parenteral antimalarial activity against Plasmodium vinckei vinckei in mice (Mus musculus) measured as % cured and increase in MST (days) at 15 mg/kg dose
[28] = system: Mus musculus; test: Parenteral antimalarial activity against Plasmodium vinckei in mice (Mus musculus) measured as increase in mean survival time at 10 mg/kg dose
[29] = system: Mus musculus; test: Oral antimalarial activity against Plasmodium vinckei in mice (Mus musculus) measured as increase in mean survival time at 150 mg/kg dose
[30] = system: Mus musculus; test: Oral antimalarial activity against Plasmodium vinckei vinckei in mice (Mus musculus) measured as % cured and increase in MST (days) at 50 mg/kg dose
[31] = system: Mus musculus; test: Parenteral antimalarial activity against Plasmodium vinckei in mice (Mus musculus) measured as increase in mean survival time at 15 mg/kg dose
[32] = system: Mus musculus; test: Oral antimalarial activity against Plasmodium vinckei in mice (Mus musculus) measured as % cured and increase in MST (days) at 25 mg/kg dose
[33] = system: Mus musculus; test: Parenteral antimalarial activity against Plasmodium vinckei in mice (Mus musculus) measured as % cured and increase in MST (days) at 20 mg/kg dose
[34] = system: Mus musculus; test: Oral antimalarial activity against Plasmodium vinckei vinckei in mice (Mus musculus) measured as increase in mean survival time at 75 mg/kg dose
[35] = system: Mus musculus; test: Oral antimalarial activity against Plasmodium vinckei in mice (Mus musculus) measured as % cured and increase in MST (days) at 75 mg/kg dose
[36] = system: Mus musculus; test: Parenteral antimalarial activity against Plasmodium vinckei in mice (Mus musculus) measured as % cured and increase in MST (days) at 30 mg/kg dose
[37] = system: Mus musculus; test: Parenteral antimalarial activity against Plasmodium vinckei vinckei in mice (Mus musculus) measured as increase in mean survival time at 25 mg/kg dose
[38] = system: Mus musculus; test: Parenteral antimalarial activity against Plasmodium vinckei in mice (Mus musculus) measured as increase in mean survival time at 20 mg/kg dose
[39] = system: Mus musculus; test: Parenteral antimalarial activity against Plasmodium vinckei in mice (Mus musculus) measured as increase in mean survival time at 30 mg/kg dose
[40] = system: Mus musculus; test: Parenteral antimalarial activity against Plasmodium vinckei in mice (Mus musculus) measured as % cured and increase in MST (days) at 25 mg/kg dose

| SMILES | Cured [1] | MST [2] | Cured [3] | MST [5] | MST [21] | MST [22] | Cured [25] | Cured [26] | Cured [27] | MST [29] | Cured [30] | MST [31] | Cured [32] | MST [34] | Cured [35] | Cured [36] | MST [37] | MST [39] | Cured [33] | Cured [40] | further results |
| --- | --- | --- | --- | --- | --- | --- | --- | --- | --- | --- | --- | --- | --- | --- | --- | --- | --- | --- | --- | --- | --- |
| Cn1c(=O)nc2n(-c3cc(Cl)ccc3Cl)c3ccccc3nc-2c1=O | 0% | 0 days | 0% | 0 days | – | – | – | – | – | – | – | – | – | – | – | – | – | – | – | – | MST [4]: 0 days; Cured [6]: 0%; Cured [7]: 0%; MST [8]: 0 days; MST [9]: 0 days; Cured [10]: 0%; Cured [11]: 0%; MST [12]: 0 days; MST [13]: 0 days; MST [14]: 0 days; Cured [15]: 0%; MST [16]: 0 days; Cured [17]: 0%; Cured [18]: 0%; Cured [19]: 0%; MST [20]: 0 days |
| Cn1c(=O)nc2n(-c3cccc(F)c3)c3ccccc3nc-2c1=O | 40% | 2.5 days | 0% | 0.2 days | 0 days | – | – | – | – | – | – | – | – | – | – | – | – | – | – | – | MST [4]: 0 days; Cured [6]: 40%; Cured [7]: 80%; MST [8]: 0 days; MST [9]: 1.7 days; Cured [10]: 20%; Cured [11]: 40%; MST [13]: 2 days; MST [14]: 0 days; Cured [15]: 0%; MST [16]: 0 days; Cured [17]: 0%; Cured [18]: 0%; Cured [19]: 40%; MST [20]: 2.2 days |
| Cn1c(=O)nc2n(-c3ccc(Cl)cc3)c3ccccc3nc-2c1=O | – | – | – | – | 2.4 days | 2.7 days | 90% | 90% | 95% | 2.7 days | 75% | 1 days | 45% | 1 days | 85% | – | – | – | – | – | Cured [23]: 60%; MST [24]: 1.4 days; MST [28]: 1.5 days; Cured ([33]; 20 mg/kg): 100% and 90% |
| Cn1c(=O)nc2n(-c3ccc(F)cc3)c3ccccc3nc-2c1=O | – | – | – | – | 0 days | 1 days | 20% | 0% | 0% | 2.3 days | 0% | 0.8 days | 0% | 0.6 days | 0% | 0% | 0.8 days | 0.2 days | 20% | 0% | Cured [23]: 0%; MST [24]: 0.8 days; MST [38]: 0.5 days; MST [28]: 0 days |
| Cn1c(=O)nc2n(-c3ccc(Br)cc3)c3ccccc3nc-2c1=O | – | – | – | – | 3.5 days | – | 100% | 100% | 100% | – | 100% | – | 60% | – | 100% | 40% | 14 days | 13 days | 100% | 60% | Cured [23]: 80%; MST [28]: 2 days |
| Cn1c(=O)nc2n(-c3cccc(Br)c3)c3ccccc3nc-2c1=O | – | – | – | – | – | 1.5 days | 60% | 60% | 0% | 1 days | 20% | 1.3 days | 0% | 1.5 days | 40% | 60% | 3 days | 1 days | 20% | 60% | MST [38]: 1.4 days; MST ([21]; 25 mg/kg): 1 days and 2 days |
| Cc1cc(Cl)ccc1-n1c2nc(=O)n(C)c(=O)c-2nc2ccccc21 | 40% | 3.2 days | 0% | 1.2 days | – | – | – | – | – | – | – | – | – | – | – | – | – | – | – | – | Cured [6]: 0%; Cured [7]: 60%; MST [8]: 1.5 days; MST [9]: 1.2 days; Cured [10]: 40%; Cured [11]: 0%; MST [12]: 0.5 days; MST [13]: -1.4 days; MST [14]: 1.5 days; Cured [15]: 0%; MST [16]: 2 days; Cured [18]: 0%; Cured [19]: 80%; MST [20]: -2 days |
| Cn1c(=O)nc2n(-c3cccc(Cl)c3)c3ccccc3nc-2c1=O | – | – | – | – | – | 1.2 days | 60% | 0% | 0% | 2.5 days | 0% | 0 days | – | 4.3 days | 20% | 0% | 0 days | 0 days | 0% | 0% | MST [24]: 0 days; MST [38]: 0.2 days |
